In patent US8080644B2, “Oligonucleotide analogues” (Exiqon A/S, priority 1997, dated 2011):
V = bicyclic LNA-type nucleotide of structure V in the publication's (LNA marked in bold); d = 2'-deoxy (DNA)

Columns and labels:
5′-(AAAAAAAAAAAAAA)-3′ = experiment: Tm of duplex (spectrophotometric melting curves); assay type: binding; conditions: vs RNA 5′-(AAAAAAAAAAAAAA)-3′; 10 mM Na2HPO4 pH 7.0, 100 mM NaCl, 0.1 mM EDTA
Experimental: (§1) Thermostability of oligonucleotides containing monomers of formula V, X, Y and Z^T, Z^U, Z^G, Z^C, Z^A, Z^MeC. The thermostability of the LNA modified oligonucleotides were determined spectrophotometrically using a spectrophotometer equipped with a thermoregulated Peltier element. Hybridisation mixtures of 1 ml were prepared containing either of 3 different buffers (10 mM Na2HPO4, pH 7.0, 100 mM NaCl, 0.1 mM EDTA; 10 mM Na2HPO4 pH 7.0, 0.1 mM EDTA; 3M tetramethylammoniumchlorid (TMAC), 10 mM Na2HPO4, pH 7.0, 0.1 mM EDTA) and equimolar (1 μM or 1.5 μM) amounts of the different LNA modified oligonucleotides and their complementary or mismatched DNA or RNA oligonucleotides. Identical hybridisation mixtures using the unmodified oligonucleotides were prepared as references. The Tm's were obtained as the first derivative of the melting curves. FIG. 2 illustrates the monomeric LNAs used. The nomenclature V, X, Y and Z^T, Z^U, Z^G, Z^C, Z^A, Z^MeC refer to structures V, X, Y and Z of FIG. 2. In the tables, the nucleobases of the LNA monomers are indicated. Furthermore, for the thio and amino variants of the LNA structure Z of the last two tables, the nomenclature used is, e.g., Z^TS and Z^TNH, respectively.

5′-d(AAAAAAAAAAAAAA)-3′ = experiment: Tm of duplex (spectrophotometric melting curves); assay type: binding; conditions: vs 5′-d(AAAAAAAAAAAAAA)-3′; 10 mM Na2HPO4 pH 7.0, 100 mM NaCl, 0.1 mM EDTA
Experimental: as §1

5′-d(AAAACAAAA)-3′ = experiment: Tm of duplex (spectrophotometric melting curves); assay type: binding; conditions: vs 5′-d(AAAACAAAA)-3′ (mismatch); 10 mM Na2HPO4 pH 7.0, 100 mM NaCl, 0.1 mM EDTA
Experimental: as §1

5′-d(AAAAGAAAA)-3′ = experiment: Tm of duplex (spectrophotometric melting curves); assay type: binding; conditions: vs 5′-d(AAAAGAAAA)-3′ (mismatch); 10 mM Na2HPO4 pH 7.0, 100 mM NaCl, 0.1 mM EDTA
Experimental: as §1

5′-d(AAAATAAAA)-3′ = experiment: Tm of duplex (spectrophotometric melting curves); assay type: binding; conditions: vs 5′-d(AAAATAAAA)-3′ (mismatch); 10 mM Na2HPO4 pH 7.0, 100 mM NaCl, 0.1 mM EDTA
Experimental: as §1

5′-(AAAAAAGAAAAAAA)-3′ = experiment: Tm of duplex (spectrophotometric melting curves); assay type: binding; conditions: vs RNA 5′-(AAAAAAGAAAAAAA)-3′ (mismatch); 10 mM Na2HPO4 pH 7.0, 100 mM NaCl, 0.1 mM EDTA
Experimental: as §1

δ opioid receptor = experiment: Warm water tail flick test, [D-Ala2]deltorphin-induced antinociception; assay type: in vivo, rats; conditions: 60 μg, i.th, saline-treated controls, 52° C. water
Experimental: Blockade by Antisense Locked Nucleic Acids (LNA) of [D-Ala2]Deltorphin-Induced Antinociception in the Warm Water Tail Flick Test in Conscious Rats. Male Sprague-Dawley rats (300 g) were implanted with an intrathecal (i.th). polyethylene catheter and allowed to recover for at least 5 days before start of injections (including controls). The antisense LNA compounds (12.5 and 2.5 μg per injection) were administered in a 5 μl volume twice-daily (08.00 and 17.00 h) for 3 days. No signs of non-specific effects or toxicity could be detected, as shown by observations of locomotor behavior and measurements of body weight. The day after the last injection the rats were injected with [D-Ala2]deltorphin (60 μg, i.th) and tested in the warm water (52° C.) tail flick test for δ opioid receptor-mediated antinociception. Data are presented in FIG. 14 as medians based on 6-8 animals per group (data converted to percent maximum possible response, % MPE). Statistical analyses were performed by means of Kruskal-Wallis 1-way ANOVA by ranks, followed by comparisons of treatments versus control.

[1] = test system: Arabidopsis mRNA, AMV Reverse Transcriptase; experiment: First strand cDNA synthesis priming; assay type: biochemical; conditions: 42° C., 2 hours, vs anchored poly dT control
Experimental: First Strand cDNA Synthesis Using Poly dT Primers Containing LNA T monomers. Reactions were set up in order to test the ability of poly dT primers containing LNA T residues to prime 1st strand cDNA synthesis. The following poly dT primers were tested (LNA monomers are in bold): […]
Reactions were set up as follows for each of the primers above: […]
This mix was then heated to 75° C. for 3 min and then allowed to cool at room temperature for at least 10 min.
The following was then added to each of the reactions:
The reactions were incubated at 42° C. for 2 hours. The reactions were then heated at 95° C. for 3 min before loading onto a 6% polyacrylamide 7M urea gel. The gel was fixed in 10% acetic acid/10% methanol before transferring to 3 MM paper and drying. The dried gel was exposed to Kodak Biomax autoradiography film overnight.

**Q.** For “5′-d(TTTTTTTTTT)-3′ (SEQ ID NO: 95): almost fully modified LNA oligomer containing exclusively Z^T (52-56) (LNA Z^T monomers)”, which “Tm (° C.) Na2HPO4/NaCl/EDTA” value (5′-(AAAAAAAAAAAAAA)-3′) is on record?
**A.** Its value is 70 °C.

**Q.** What about the “Tm (° C.) Na2HPO4/NaCl/EDTA” value (5′-d(AAAAAAAAAAAAAA)-3′) of the same molecule?
**A.** The value was 80 °C.

**Q.** What about the “Tm (° C.) Na2HPO4/NaCl/EDTA” value (5′-d(AAAACAAAA)-3′) of the same molecule?
**A.** Its value is 63 °C.

**Q.** And the “Tm (° C.) Na2HPO4/NaCl/EDTA” value (5′-d(AAAAGAAAA)-3′)?
**A.** Its value is 55 °C.

**Q.** And the “Tm (° C.) Na2HPO4/NaCl/EDTA” value (5′-d(AAAATAAAA)-3′)?
**A.** Its value is 65 °C.

**Q.** “5′-d(TTTTTTTTTTTTTT)-3′ (SEQ ID NO: 113): fully modified poly-T oligonucleotide of structure V (sugars from the 5' end V13 d1, backbone not given here)” was tested. Which “Tm (° C.) Na2HPO4/NaCl/EDTA” value (5′-(AAAAAAAAAAAAAA)-3′) did it give?
**A.** The value was 42 °C.

**Q.** What about the “Tm (° C.) Na2HPO4/NaCl/EDTA” value (5′-(AAAAAAGAAAAAAA)-3′) of the same molecule?
**A.** The value was 37 °C.

**Q.** What about the “Tm (° C.) Na2HPO4/NaCl/EDTA” value (5′-d(AAAAAAAAAAAAAA)-3′) of the same molecule?
**A.** Its value is under 10 °C.

**Q.** Which antinociceptive effect (δ opioid receptor) does the source give for `CC(C)[C@H](NC(=O)[C@H](CCC(=O)O)NC(=O)[C@H](Cc1ccccc1)NC(=O)[C@@H](C)NC(=O)[C@@H](N)Cc1ccc(O)cc1)C(=O)N[C@H](C(=O)NCC(=O)O)C(C)C` [deltorphin, [D-Ala2]deltorphin] here?
**A.** The antinociceptive effect was “robust antinociceptive effect”.

**Q.** How did the “priming of 1st strand cDNA synthesis” value [1] turn out when “RTZ 5: poly dT primer 5′-TTT TTT TTT T-3′ (SEQ ID NO: 69) containing LNA T monomers (TTTTTTTTTT; LNA T monomers)” was run?
**A.** Its value is “yield was significantly lower than that produced with the control oligo primer”.
